Publication PMC6704710, “Preclinical evaluation of 3D185, a novel potent inhibitor of FGFR1/2/3 and CSF-1R, in FGFR-dependent and macrophage-dominant cancer models” (Journal of Experimental & Clinical Cancer Research : CR, 2019)

Experiments:
Assay in all cases: Eurofins kinase panel
Assay type in all cases: biochemical
Conditions in all cases: read-out: Inhibition rate (%)
TSSK2(h) = molecular target: T1, TSSK2(h) (Homo sapiens, UniProt Q96PF2)
T1 construct: purchased Eurofins (KinaseProfiler)
T1 sequence (Q96PF2 1-358): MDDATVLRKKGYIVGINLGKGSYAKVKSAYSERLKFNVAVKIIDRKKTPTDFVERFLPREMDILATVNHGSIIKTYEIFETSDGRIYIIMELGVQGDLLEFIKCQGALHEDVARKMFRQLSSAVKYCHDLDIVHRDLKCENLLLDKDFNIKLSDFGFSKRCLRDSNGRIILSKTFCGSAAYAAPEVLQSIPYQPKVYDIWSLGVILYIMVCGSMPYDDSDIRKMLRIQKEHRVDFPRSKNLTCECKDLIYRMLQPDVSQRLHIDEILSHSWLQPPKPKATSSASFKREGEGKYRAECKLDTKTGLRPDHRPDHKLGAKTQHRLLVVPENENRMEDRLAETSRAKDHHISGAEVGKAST

Fer(h) = molecular target: T2, Fer(h) (Homo sapiens, UniProt P16591)
T2 construct: purchased Eurofins (KinaseProfiler)

MELK(h) = molecular target: T3, MELK(h) (Homo sapiens, UniProt Q14680)
T3 construct: purchased Eurofins (KinaseProfiler)

GRK7(h) = molecular target: T4, GRK7(h) (Homo sapiens, UniProt Q8WTQ7)
T4 construct: purchased Eurofins (KinaseProfiler)
T4 sequence (Q8WTQ7 1-553): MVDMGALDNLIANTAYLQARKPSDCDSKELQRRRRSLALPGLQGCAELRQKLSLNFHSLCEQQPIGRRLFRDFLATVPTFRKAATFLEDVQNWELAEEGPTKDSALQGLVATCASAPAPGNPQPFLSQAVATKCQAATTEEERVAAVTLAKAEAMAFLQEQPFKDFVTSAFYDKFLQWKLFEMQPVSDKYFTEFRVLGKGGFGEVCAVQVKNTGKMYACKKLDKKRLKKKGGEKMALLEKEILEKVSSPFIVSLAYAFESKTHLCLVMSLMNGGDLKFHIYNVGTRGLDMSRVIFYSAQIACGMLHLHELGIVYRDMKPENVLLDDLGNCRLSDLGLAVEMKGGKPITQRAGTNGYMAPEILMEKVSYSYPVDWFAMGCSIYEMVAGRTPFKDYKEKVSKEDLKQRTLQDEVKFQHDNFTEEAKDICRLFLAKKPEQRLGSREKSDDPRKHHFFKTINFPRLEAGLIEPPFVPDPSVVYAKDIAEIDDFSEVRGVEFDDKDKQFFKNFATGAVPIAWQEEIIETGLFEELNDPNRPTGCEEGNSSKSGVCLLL

GRK3(h) = molecular target: T5, GRK3(h) (Homo sapiens, UniProt P35626)
T5 construct: purchased Eurofins (KinaseProfiler)
T5 sequence (P35626 1-688): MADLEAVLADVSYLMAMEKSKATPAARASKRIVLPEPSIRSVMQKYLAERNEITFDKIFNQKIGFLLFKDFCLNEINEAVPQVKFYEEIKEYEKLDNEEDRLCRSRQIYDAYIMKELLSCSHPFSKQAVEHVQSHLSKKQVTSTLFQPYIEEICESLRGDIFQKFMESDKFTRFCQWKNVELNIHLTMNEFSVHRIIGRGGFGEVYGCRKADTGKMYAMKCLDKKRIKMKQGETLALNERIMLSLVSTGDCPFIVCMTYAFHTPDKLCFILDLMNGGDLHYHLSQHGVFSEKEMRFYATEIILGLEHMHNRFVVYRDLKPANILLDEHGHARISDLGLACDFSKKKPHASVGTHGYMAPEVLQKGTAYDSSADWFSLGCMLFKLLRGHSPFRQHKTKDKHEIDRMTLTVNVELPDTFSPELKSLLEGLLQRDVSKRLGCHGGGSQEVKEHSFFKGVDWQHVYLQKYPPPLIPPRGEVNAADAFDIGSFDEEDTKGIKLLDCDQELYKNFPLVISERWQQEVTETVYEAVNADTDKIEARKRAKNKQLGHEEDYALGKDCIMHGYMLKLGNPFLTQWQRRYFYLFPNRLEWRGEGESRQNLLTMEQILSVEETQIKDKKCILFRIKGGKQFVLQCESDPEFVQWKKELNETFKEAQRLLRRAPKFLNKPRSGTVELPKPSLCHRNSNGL

PDGFRα(D842V)(h) = molecular target: T6, PDGFRα(D842V)(h) (Homo sapiens, UniProt P16234, D842V)
T6 construct: purchased Eurofins (KinaseProfiler)

CHK1(h) = molecular target: T7, CHK1(h) (Homo sapiens, UniProt O14757)
T7 construct: purchased Eurofins (KinaseProfiler)
T7 sequence (O14757 1-476): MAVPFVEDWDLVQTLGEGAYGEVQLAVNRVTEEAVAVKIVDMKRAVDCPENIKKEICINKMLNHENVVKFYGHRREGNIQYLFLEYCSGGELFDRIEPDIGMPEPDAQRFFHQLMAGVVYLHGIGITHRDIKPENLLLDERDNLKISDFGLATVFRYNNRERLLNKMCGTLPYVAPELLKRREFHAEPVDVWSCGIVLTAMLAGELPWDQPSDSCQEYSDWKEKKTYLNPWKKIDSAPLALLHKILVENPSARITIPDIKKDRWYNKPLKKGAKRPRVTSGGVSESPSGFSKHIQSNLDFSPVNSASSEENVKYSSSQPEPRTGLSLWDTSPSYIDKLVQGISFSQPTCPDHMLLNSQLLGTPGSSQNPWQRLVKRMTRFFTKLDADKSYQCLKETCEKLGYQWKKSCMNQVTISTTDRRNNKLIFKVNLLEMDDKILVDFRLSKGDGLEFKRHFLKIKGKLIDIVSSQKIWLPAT

Rsk2(h) = molecular target: T8, Rsk2(h) (Homo sapiens, UniProt P51812)
T8 construct: purchased Eurofins (KinaseProfiler)
T8 sequence (P51812 whole entry): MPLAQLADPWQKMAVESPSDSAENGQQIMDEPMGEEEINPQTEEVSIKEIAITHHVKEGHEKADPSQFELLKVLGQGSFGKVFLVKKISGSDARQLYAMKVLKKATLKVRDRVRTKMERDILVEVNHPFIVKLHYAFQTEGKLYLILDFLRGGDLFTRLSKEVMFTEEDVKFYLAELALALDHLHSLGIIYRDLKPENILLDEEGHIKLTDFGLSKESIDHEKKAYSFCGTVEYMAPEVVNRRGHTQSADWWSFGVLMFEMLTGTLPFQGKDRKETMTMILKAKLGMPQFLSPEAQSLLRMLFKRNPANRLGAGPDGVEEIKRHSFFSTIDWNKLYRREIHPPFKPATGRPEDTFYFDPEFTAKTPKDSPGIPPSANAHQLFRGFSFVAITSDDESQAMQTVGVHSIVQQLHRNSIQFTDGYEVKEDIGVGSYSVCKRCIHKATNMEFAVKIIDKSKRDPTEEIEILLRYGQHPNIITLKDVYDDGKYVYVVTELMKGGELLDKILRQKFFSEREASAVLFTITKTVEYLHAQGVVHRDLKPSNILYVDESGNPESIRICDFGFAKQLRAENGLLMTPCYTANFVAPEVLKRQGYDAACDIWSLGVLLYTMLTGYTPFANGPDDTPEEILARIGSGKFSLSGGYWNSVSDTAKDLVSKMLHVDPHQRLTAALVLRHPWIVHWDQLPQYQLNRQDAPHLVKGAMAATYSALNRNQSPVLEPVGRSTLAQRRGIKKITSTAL

T6 sequence (P16234 24-1089 D842V): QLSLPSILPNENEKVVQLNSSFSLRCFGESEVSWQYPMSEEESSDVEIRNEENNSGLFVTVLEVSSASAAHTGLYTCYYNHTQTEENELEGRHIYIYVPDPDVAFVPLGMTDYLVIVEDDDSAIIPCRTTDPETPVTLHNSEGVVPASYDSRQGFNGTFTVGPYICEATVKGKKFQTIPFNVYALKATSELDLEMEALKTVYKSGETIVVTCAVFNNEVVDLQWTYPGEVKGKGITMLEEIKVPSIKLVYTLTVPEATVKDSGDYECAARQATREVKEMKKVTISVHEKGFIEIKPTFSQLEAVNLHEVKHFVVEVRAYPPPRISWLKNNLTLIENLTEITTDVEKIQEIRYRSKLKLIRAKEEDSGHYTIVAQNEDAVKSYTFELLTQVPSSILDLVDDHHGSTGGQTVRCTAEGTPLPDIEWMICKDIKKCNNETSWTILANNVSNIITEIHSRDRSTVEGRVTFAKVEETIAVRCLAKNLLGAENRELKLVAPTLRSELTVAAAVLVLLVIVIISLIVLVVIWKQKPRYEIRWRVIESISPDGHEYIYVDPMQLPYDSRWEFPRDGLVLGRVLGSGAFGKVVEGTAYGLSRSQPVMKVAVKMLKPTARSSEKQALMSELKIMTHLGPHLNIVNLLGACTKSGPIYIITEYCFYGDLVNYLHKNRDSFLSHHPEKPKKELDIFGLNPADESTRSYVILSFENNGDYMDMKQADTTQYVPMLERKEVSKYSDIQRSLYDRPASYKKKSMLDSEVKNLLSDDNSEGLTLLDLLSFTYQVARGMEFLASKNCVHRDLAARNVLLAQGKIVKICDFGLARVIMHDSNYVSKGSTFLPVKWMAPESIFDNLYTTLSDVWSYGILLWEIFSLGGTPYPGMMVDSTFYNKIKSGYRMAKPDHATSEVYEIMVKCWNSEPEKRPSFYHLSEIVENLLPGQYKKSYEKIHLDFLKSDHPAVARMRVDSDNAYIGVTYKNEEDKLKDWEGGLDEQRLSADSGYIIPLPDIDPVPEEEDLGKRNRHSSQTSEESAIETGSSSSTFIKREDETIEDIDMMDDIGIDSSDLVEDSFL
T3 sequence (Q14680 whole entry): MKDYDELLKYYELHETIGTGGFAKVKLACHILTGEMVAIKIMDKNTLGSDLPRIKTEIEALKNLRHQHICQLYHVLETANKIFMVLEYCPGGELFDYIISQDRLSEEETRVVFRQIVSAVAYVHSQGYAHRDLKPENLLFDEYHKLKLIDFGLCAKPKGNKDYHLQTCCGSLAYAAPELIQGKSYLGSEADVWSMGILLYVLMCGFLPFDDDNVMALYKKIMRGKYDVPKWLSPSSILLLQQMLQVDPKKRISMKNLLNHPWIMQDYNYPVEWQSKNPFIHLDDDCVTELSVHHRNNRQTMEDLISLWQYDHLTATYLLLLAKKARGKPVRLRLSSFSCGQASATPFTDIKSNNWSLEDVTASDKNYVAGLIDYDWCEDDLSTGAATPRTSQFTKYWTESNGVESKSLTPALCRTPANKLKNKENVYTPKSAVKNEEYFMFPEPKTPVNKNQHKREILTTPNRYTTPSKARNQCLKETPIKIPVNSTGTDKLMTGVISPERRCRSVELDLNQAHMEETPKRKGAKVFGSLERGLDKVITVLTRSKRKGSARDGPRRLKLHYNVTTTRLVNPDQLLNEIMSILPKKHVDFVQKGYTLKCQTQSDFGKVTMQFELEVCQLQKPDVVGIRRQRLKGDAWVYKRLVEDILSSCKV
T2 sequence (P16591 whole entry): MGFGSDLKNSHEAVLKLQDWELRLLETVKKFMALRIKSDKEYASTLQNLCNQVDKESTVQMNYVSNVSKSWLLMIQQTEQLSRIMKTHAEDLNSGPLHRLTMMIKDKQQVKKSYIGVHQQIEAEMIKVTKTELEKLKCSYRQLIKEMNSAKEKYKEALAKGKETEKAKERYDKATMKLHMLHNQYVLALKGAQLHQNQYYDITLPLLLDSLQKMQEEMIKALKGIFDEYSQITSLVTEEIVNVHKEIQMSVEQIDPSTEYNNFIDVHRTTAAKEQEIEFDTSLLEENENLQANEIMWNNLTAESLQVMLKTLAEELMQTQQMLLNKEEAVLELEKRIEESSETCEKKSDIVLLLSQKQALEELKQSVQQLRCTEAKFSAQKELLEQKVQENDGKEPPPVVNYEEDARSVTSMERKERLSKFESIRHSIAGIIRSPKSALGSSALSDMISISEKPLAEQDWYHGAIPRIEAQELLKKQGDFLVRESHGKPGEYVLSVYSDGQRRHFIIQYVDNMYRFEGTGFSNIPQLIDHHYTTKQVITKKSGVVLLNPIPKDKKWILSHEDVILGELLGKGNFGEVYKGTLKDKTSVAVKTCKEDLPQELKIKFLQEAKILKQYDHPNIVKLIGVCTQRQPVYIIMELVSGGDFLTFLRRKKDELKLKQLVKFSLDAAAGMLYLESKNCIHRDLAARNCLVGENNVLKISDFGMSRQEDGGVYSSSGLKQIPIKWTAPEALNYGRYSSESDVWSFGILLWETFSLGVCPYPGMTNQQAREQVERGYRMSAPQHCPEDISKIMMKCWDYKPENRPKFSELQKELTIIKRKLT

Work on `COc1cc(OC)c(Cl)c(-c2ccc3c(NC(=O)c4ccc(N5CCNC(C)(C)C5)cc4)n[nH]c3n2)c1Cl` [3D185] yielded an inhibition at 0.01 µM (TSSK2(h); 10 nM) of 6%, an inhibition at 0.1 µM (TSSK2(h); 100 nM) of 5% and an inhibition at 1 µM (TSSK2(h); 1000 nM) of -4%. It also gave an inhibition at 0.01 µM (Fer(h); 10 nM) of -11%, an inhibition at 0.1 µM (Fer(h); 100 nM) of 0% and an inhibition at 1 µM (Fer(h); 1000 nM) of 42%. It also gave an inhibition at 0.01 µM (MELK(h); 10 nM) of -1%, an inhibition at 0.1 µM (MELK(h); 100 nM) of 8% and an inhibition at 1 µM (MELK(h); 1000 nM) of 14%. It also gave an inhibition at 0.01 µM (GRK7(h); 10 nM) of 9%, an inhibition at 0.1 µM (GRK7(h); 100 nM) of 16% and an inhibition at 1 µM (GRK7(h); 1000 nM) of 27%. It also gave an inhibition at 0.01 µM (GRK3(h); 10 nM) of 6%, an inhibition at 0.1 µM (GRK3(h); 100 nM) of 3% and an inhibition at 1 µM (GRK3(h); 1000 nM) of 3%. For the same compound, the inhibition at 0.01 µM (PDGFRα(D842V)(h); 10 nM) was -2%, the inhibition at 0.1 µM (PDGFRα(D842V)(h); 100 nM) was 5% and the inhibition at 1 µM (PDGFRα(D842V)(h); 1000 nM) was 9%. The inhibition at 0.01 µM (CHK1(h); 10 nM) was 3%, the inhibition at 0.1 µM (CHK1(h); 100 nM) was -6% and the inhibition at 1 µM (CHK1(h); 1000 nM) was -3%. It also gave an inhibition at 0.01 µM (Rsk2(h); 10 nM) of -19%, an inhibition at 0.1 µM (Rsk2(h); 100 nM) of 0% and an inhibition at 1 µM (Rsk2(h); 1000 nM) of 24%.
